The values below are quoted from earlier work in US10201964B2, “Treatment for reducing the toxicity of 3D-printed parts” (The Regents of the University of California, priority 2015, dated 2019).

The test system of series [1] is rat fetuses.
For series [2] the following is noted: when used as scaffolds.

As to `C=C(C)C(=O)O` [methacrylic acid], the “toxic effects on embryonic and fetal development” value in series [1] is “toxic effects on embryonic and fetal development in rat fetuses”.

`C=CC(=O)O` [acrylic acid]: the “toxic effects on embryonic and fetal development” value in series [1] was “toxic effects on embryonic and fetal development in rat fetuses”. Consider `C=C(C)C(=O)OC` [methylmethacrylate], for which the cardiovascular failure result in series [2] was “associated with irreversible cardiovascular failure”.
